Data published in PubChem BioAssay (NCI).
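Where inhibition never reached the appropriate level, the endpoint shown equals the highest concentration tested. Otherwise, values were interpolated linearly from a five-concentration, 48-hour dose response in 96-well plates. Here, GI50 denotes the concentration required for 50% inhibition of growth. The concentration for full growth arrest is given as TGI.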

Columns and labels:
Assay in all cases: NCI anticancer screen, dose series, 48 h
[1] = system: 786-0 renal
[2] = system: A498 renal
[3] = system: A549 NSCLC
[4] = system: ACHN renal
[5] = system: BT-549 breast
[6] = system: CAKI-1 renal
[7] = system: CCRF-CEM leukemia
[8] = system: COLO 205 colon
[9] = system: DU-145 prostate
[10] = system: EKVX NSCLC
[11] = system: HCC-2998 colon
[12] = system: HCT-116 colon
[13] = system: HCT-15 colon
[14] = system: HL-60(TB) leukemia
[15] = system: HOP-62 NSCLC
[16] = system: HOP-92 NSCLC
[17] = system: HS 578T breast
[18] = system: HT29 colon
[19] = system: IGROV1 ovarian
[20] = system: K-562 leukemia
[21] = system: KM12 colon
[22] = system: LOX IMVI melanoma
[23] = system: M14 melanoma
[24] = system: MALME-3M melanoma
[25] = system: MCF7 breast
[26] = system: MDA-MB-231 breast
[27] = system: MDA-MB-435
[28] = system: MOLT-4 leukemia
[29] = system: NCI-H226 lung
[30] = system: NCI-H23 lung
[31] = system: NCI-H460 lung
[32] = system: NCI-H522 lung
[33] = system: NCI/ADR-RES ovarian
[34] = system: OVCAR-3 ovarian
[35] = system: OVCAR-4 ovarian
[36] = system: OVCAR-5 ovarian
[37] = system: OVCAR-8 ovarian
[38] = system: PC-3 prostate
[39] = system: RPMI-8226 leukemia
[40] = system: RXF 393 renal
[41] = system: SF-268 CNS
[42] = system: SF-295 CNS
[43] = system: SF-539 CNS
[44] = system: SK-MEL-2 melanoma
[45] = system: SK-MEL-28 melanoma
[46] = system: SK-MEL-5 melanoma
[47] = system: SK-OV-3 ovarian
[48] = system: SN12C renal
[49] = system: SNB-19 CNS
[50] = system: SNB-75 CNS
[51] = system: SR leukemia
[52] = system: SW-620 colon
[53] = system: T-47D breast
[54] = system: TK-10 renal
[55] = system: U251 CNS
[56] = system: UACC-257 melanoma
[57] = system: UACC-62 melanoma
[58] = system: UO-31 renal

**Q.** Which results are given for `CCc1ccc(/C=C2/SC(=S)NC2=O)cc1`?
**A.** GI50 [1]: 22.6 µM; TGI [1]: 81.3 µM; GI50 [2]: 6.15 µM; TGI [2]: 36.4 µM; GI50 [3]: 20.8 µM; TGI [3]: > 80.2 µM; GI50 [4]: 27.2 µM; TGI [4]: > 100 µM; GI50 [5]: 20.9 µM; TGI [5]: 58.2 µM; GI50 [6]: 24 µM; TGI [6]: > 81.5 µM; GI50 [7]: 22.6 µM; TGI [7]: > 80.4 µM; GI50 [8]: 18.3 µM; TGI [8]: 33.7 µM; GI50 [9]: 38.6 µM; TGI [9]: > 100 µM; GI50 [10]: 21.9 µM; TGI [10]: 73.2 µM; GI50 [11]: 18.8 µM; TGI [11]: 45.7 µM; GI50 [12]: 21 µM; TGI [12]: 59.5 µM; GI50 [13]: 16.9 µM; TGI [13]: 39.8 µM; GI50 [14]: 21.6 µM; TGI [14]: 57 µM; GI50 [15]: 25.7 µM; TGI [15]: 78.2 µM; GI50 [16]: 3.41 µM; TGI [16]: 26.4 µM; GI50 [17]: 16.3 µM; TGI [17]: 70.6 µM; GI50 [18]: 27.9 µM; TGI [18]: > 80 µM; GI50 [19]: 37.5 µM; TGI [19]: > 100 µM; GI50 [20]: 29.3 µM; TGI [20]: > 100 µM; GI50 [21]: 25.1 µM; TGI [21]: > 77.3 µM; GI50 [22]: 22.4 µM; TGI [22]: > 71.5 µM; GI50 [23]: 24.3 µM; TGI [23]: 82.8 µM; GI50 [24]: 23.2 µM; TGI [24]: > 80.6 µM; GI50 [25]: 21.2 µM; TGI [25]: > 85.5 µM; GI50 [26]: 18.9 µM; TGI [26]: 46.7 µM; GI50 [27]: 27.5 µM; TGI [27]: > 100 µM; GI50 [28]: 23.5 µM; TGI [28]: 84.3 µM; GI50 [29]: 20.3 µM; TGI [29]: 71.3 µM; GI50 [30]: 18.6 µM; TGI [30]: 47 µM; GI50 [31]: 20.7 µM; TGI [31]: 54.8 µM; GI50 [32]: 15 µM; TGI [32]: 43.8 µM; GI50 [33]: 25.3 µM; TGI [33]: 89.4 µM; GI50 [34]: 16.9 µM; TGI [34]: 35.3 µM; GI50 [35]: 20 µM; TGI [35]: > 93.3 µM; GI50 [36]: 24.1 µM; TGI [36]: 90.6 µM; GI50 [37]: 25.9 µM; TGI [37]: > 88.8 µM; GI50 [38]: 23.3 µM; TGI [38]: > 100 µM; GI50 [39]: 16.5 µM; TGI [39]: > 76 µM; GI50 [40]: 18.9 µM; TGI [40]: 55.7 µM; GI50 [41]: 24.5 µM; TGI [41]: > 100 µM; GI50 [42]: 18.2 µM; TGI [42]: 56.8 µM; GI50 [43]: 21 µM; TGI [43]: 56.6 µM; GI50 [44]: 16.4 µM; TGI [44]: 41.3 µM; GI50 [45]: 22.9 µM; TGI [45]: 79.7 µM; GI50 [46]: 14.9 µM; TGI [46]: 37.6 µM; GI50 [47]: 24.6 µM; TGI [47]: 74.9 µM; GI50 [48]: 20.3 µM; TGI [48]: 81.4 µM; GI50 [49]: 20.3 µM; TGI [49]: > 90.3 µM; GI50 [50]: 21.7 µM; TGI [50]: > 100 µM; GI50 [51]: 19.4 µM; TGI [51]: > 84.9 µM; GI50 [52]: 27.2 µM; TGI [52]: > 100 µM; GI50 [53]: 23.5 µM; TGI [53]: 89.2 µM; GI50 [54]: 23.4 µM; TGI [54]: > 85.4 µM; GI50 [55]: 18.7 µM; TGI [55]: 62.6 µM; GI50 [56]: 17.7 µM; TGI [56]: 61.3 µM; GI50 [57]: 12.3 µM; TGI [57]: 28.9 µM; GI50 [58]: 13.2 µM; TGI [58]: 33.1 µM
